Laboratory results from patent publication US9440982B2 (Eolas Therapeutics, Inc., priority 2012, dated 2016).

Tests used:
CYP3A4 = target: T1, CYP3A4 (Homo sapiens, UniProt P08684); assay: Cytochrome P450 inhibition assay (midazolam hydroxylation); format: in vitro ADME; settings: human, human liver microsomes, probe midazolam (hydroxylation to 1′-hydroxymidazolam), 10 μM test compound, midazolam at approximately its Km
T1 construct: pre-incubated with human liver microsomes and NADPH; from tissue; host or cells: human liver microsomes
Procedure, shortened: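 Human liver microsomes; CYP3A4 activity as midazolam 1′-hydroxylation with substrate near Km, with or without 10 μM test compound, read as percent inhibition. For time-dependent inhibition, parallel samples were preincubated 30 min with NADPH before substrate, and percent inhibition compared with non-preincubated samples.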

OX1 = target: T2, OX1 (Homo sapiens, UniProt O43613); assay: Orexin receptor cell-based functional assay, [Ca2+]i by FLIPR, CHO-OX1 cells; settings: CHO-OX1 cells, [Ca2+]i by FLIPR, antagonist dose-range 0.1 nM-10 μM, EC90 of OXA; read-out: OX1
T2 construct: expressed in transfected cells; host or cells: CHO (CHO-OX1, kept under selection antibiotic)
T2 sequence (O43613 1-425): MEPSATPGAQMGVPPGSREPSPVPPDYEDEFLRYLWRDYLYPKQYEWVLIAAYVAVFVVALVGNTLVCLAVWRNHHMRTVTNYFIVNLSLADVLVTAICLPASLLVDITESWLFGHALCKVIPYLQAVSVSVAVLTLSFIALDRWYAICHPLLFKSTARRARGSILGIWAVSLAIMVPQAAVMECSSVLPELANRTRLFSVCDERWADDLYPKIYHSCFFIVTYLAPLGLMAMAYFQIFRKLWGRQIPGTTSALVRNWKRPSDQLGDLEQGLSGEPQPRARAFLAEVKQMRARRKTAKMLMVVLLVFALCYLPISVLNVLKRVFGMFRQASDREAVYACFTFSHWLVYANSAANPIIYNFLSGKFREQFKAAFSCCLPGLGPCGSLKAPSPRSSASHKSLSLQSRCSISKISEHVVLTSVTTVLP
Procedure, shortened: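 CHO cells expressing human OX1 or OX2 loaded with calcium dye plus 2.5 mM probenecid at 37° C (calcium4, 30 min, or calcium6, 2 h), then exposed to compounds (0.1 nM-10 μM) for 30 min. Intracellular Ca2+ measured on FLIPR; antagonist format.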

T1 sequence (P08684 whole entry): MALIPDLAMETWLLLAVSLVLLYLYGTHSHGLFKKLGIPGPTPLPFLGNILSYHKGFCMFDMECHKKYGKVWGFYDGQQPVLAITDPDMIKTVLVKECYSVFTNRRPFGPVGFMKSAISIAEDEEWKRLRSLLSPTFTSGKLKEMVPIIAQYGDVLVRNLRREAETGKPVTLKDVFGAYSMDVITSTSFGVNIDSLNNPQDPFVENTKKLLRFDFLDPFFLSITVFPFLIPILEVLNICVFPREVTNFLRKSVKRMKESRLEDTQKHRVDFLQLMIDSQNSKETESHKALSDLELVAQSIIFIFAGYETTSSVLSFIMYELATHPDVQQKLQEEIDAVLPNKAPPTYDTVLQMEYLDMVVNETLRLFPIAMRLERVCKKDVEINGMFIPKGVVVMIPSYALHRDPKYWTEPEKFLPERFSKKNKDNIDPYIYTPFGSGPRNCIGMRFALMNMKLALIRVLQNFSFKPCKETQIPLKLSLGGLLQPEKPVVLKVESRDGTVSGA

| Compound | inhibition at 10 µM (CYP3A4) [%] | IC50 (OX1) [µM] |
| --- | --- | --- |
| C[C@@H]1CCCN(C(=O)c2cc(Cl)ccc2-c2ncccn2)[C@@H]1CNc1ncc(C(F)(F)F)cn1 [Example A201, (5-Chloro-2-(pyrimidin-2-yl)phenyl)((2S,3R)-3-methyl-2-(((5-(trifluoromethyl)pyrimidin-2-yl)amino)methyl)piperidin-1-yl)methanone] | 38 | 0.004 |
| C[C@@H]1CCCN(C(=O)c2cc(Cl)ccc2-c2ncccn2)[C@@H]1CNc1ncc(Cl)cn1 [Example A202, (5-Chloro-2-(pyrimidin-2-yl)phenyl)((2S,3R)-2-(((5-chloropyrimidin-2-yl)amino)methyl)-3-methylpiperidin-1-yl)methanone] | 44 | 0.018 |
| C[C@@H]1CCCN(C(=O)c2cc(Cl)ccc2-c2ncccn2)[C@@H]1CNc1ccc(Cl)cn1 [Example A203, (5-Chloro-2-(pyrimidin-2-yl)phenyl)((2S,3R)-2-(((5-chloropyridin-2-yl)amino)methyl)-3-methylpiperidin-1-yl)methanone] | 70 | 0.021 |
| Cc1ccc(-c2ncccn2)c(C(=O)N2CCC[C@@H](C)[C@H]2CNc2nc3ccccc3o2)c1 [Example A204, ((2S,3R)-2-((Benzo[d]oxazol-2-ylamino)methyl)-3-methylpiperidin-1-yl)(5-methyl-2-(pyrimidin-2-yl)phenyl)methanone] | 60 | 0.003 |
| Cc1ccc(-c2ncccn2)c(C(=O)N2CCC[C@@H](C)[C@H]2CNc2nc3cc(Cl)ccc3o2)c1 [Example A205, ((2S,3R)-2-(((5-Chlorobenzo[d]oxazol-2-yl)amino)methyl)-3-methylpiperidin-1-yl)(5-methyl-2-(pyrimidin-2-yl)phenyl)methanone] | 72 | 0.011 |
| Cc1ccc(-c2ncccn2)c(C(=O)N2CCC[C@@H](C)[C@H]2CNc2nc3cc(F)ccc3o2)c1 [Example A206, ((2S,3R)-2-(((5-Fluorobenzo[d]oxazol-2-yl)amino)methyl)-3-methylpiperidin-1-yl)(5-methyl-2-(pyrimidin-2-yl)phenyl)methanone] | 58 | 0.006 |
| C[C@@H]1CCCN(C(=O)c2cc(F)ccc2-n2nccn2)[C@@H]1CNc1ccc(C(F)(F)F)nn1 [Example A208, (5-Fluoro-2-(2H-1,2,3-triazol-2-yl)phenyl)((2S,3R)-3-methyl-2-(((6-(trifluoromethyl)pyridazin-3-yl)amino)methyl)piperidin-1-yl)methanone] | 59 | 0.2 |
| C[C@@H]1CCCN(C(=O)c2cc(F)ccc2-n2nccn2)[C@@H]1CNc1ccc(Cl)cn1 [Example A209, ((2S,3R)-2-(((5-Chloropyridin-2-yl)amino)methyl)-3-methylpiperidin-1-yl)(5-fluoro-2-(2H-1,2,3-triazol-2-yl)phenyl)methanone] | 69 | 0.045 |
| C[C@@H]1CCCN(C(=O)c2ccccc2-n2nccn2)[C@@H]1CNc1nc2ccccc2o1 [Example A218, (2-(2H-1,2,3-Triazol-2-yl)phenyl)((2S,3R)-2-((benzo[d]oxazol-2-ylamino)methyl)-3-methylpiperidin-1-yl)methanone] | 75 | 0.13 |
| C[C@@H]1CCCN(C(=O)c2ccccc2-n2nccn2)[C@@H]1CNc1nc2cc(Cl)ccc2o1 [Example A219, (2-(2H-1,2,3-Triazol-2-yl)phenyl)((2S,3R)-2-(((5-chlorobenzo[d]oxazol-2-yl)amino)methyl)-3-methylpiperidin-1-yl)methanone] | 84 | 2.6 |
| Cc1ccc(-n2nccn2)c(C(=O)N2CCC[C@@H](C)[C@H]2CNc2ncc3cc(C)ccc3n2)c1 [Example A220, ((2S,3R)-3-Methyl-2-(((6-methylquinazolin-2-yl)amino)methyl)piperidin-1-yl)(5-methyl-2-(2H-1,2,3-triazol-2-yl)phenyl)methanone] | 68 | 0.011 |
| C[C@@H]1CCCN(C(=O)c2cc(F)ccc2-n2nccn2)[C@@H]1CNc1ncc(Cl)cn1 [Example A221, ((2S,3R)-2-(((5-Chloropyrimidin-2-yl)amino)methyl)-3-methylpiperidin-1-yl)(5-fluoro-2-(2H-1,2,3-triazol-2-yl)phenyl)methanone] | 53 | 0.032 |
| Cc1ccc(-c2cccnc2)c(C(=O)N2CCC[C@@H](C)[C@H]2CNc2ncc(C(F)(F)F)cn2)n1 [Example A223, ((2S,3R)-3-Methyl-2-(((5-(trifluoromethyl)pyrimidin-2-yl)amino)methyl)piperidin-1-yl)(6-methyl-[3,3′-bipyridin]-2-yl)methanone] | 93 | 0.037 |
| C[C@@H]1CCCN(C(=O)c2c(F)cccc2-c2ncccn2)[C@@H]1CNc1ncc(Cl)cn1 [Example A239, ((2S,3R)-2-(((5-Chloropyrimidin-2-yl)amino)methyl)-3-methylpiperidin-1-yl)(2-fluoro-6-(pyrimidin-2-yl)phenyl)methanone] | 50 | 0.083 |

Next, values leading:

| inhibition at 10 µM (CYP3A4) [%] | IC50 (OX1) [µM] | Compound |
| --- | --- | --- |
| 49 | 0.005 | Cc1ccc(-c2ncccn2)c(C(=O)N2CCC[C@@H](C)[C@H]2CNc2ncc(C(F)(F)F)cn2)c1 [Example A212, ((2S,3R)-3-Methyl-2-(((5-(trifluoromethyl)pyrimidin-2-yl)amino)methyl)piperidin-1-yl)(5-methyl-2-(pyrimidin-2-yl)phenyl)methanone] |
| 59 | 0.002 | C[C@@H]1CCCN(C(=O)c2cc(F)ccc2-c2ncccn2)[C@@H]1CNc1ncc(C(F)(F)F)cn1 [Example A227, (5-Fluoro-2-(pyrimidin-2-yl)phenyl)((2S,3R)-3-methyl-2-(((5-(trifluoromethyl)pyrimidin-2-yl)amino)methyl)piperidin-1-yl)methanone] |
| 72 | 0.001 | C[C@@H]1CCCN(C(=O)c2cc(F)ccc2-c2ncccn2)[C@@H]1CNc1ccc(C(F)(F)F)cn1 [Example A228, (5-Fluoro-2-(pyrimidin-2-yl)phenyl)((2S,3R)-3-methyl-2-(((5-(trifluoromethyl)pyridin-2-yl)amino)methyl)piperidin-1-yl)methanone] |
| 72 | 0.004 | C[C@@H]1CCCN(C(=O)c2cc(F)ccc2-c2ncccn2)[C@@H]1CNc1ccc(Cl)cn1 [Example A229, ((2S,3R)-2-(((5-Chloropyridin-2-yl)amino)methyl)-3-methylpiperidin-1-yl)(5-fluoro-2-(pyrimidin-2-yl)phenyl)methanone] |
| 54 | 0.017 | C[C@@H]1CCCN(C(=O)c2cccc(F)c2-c2ncccn2)[C@@H]1CNc1ncc(Cl)cn1 [Example A231, (3-Fluoro-2-(pyrimidin-2-yl)phenyl)((2S,3R)-3-methyl-2-(((5-chloropyrimidin-2-yl)amino)methyl)piperidin-1-yl)methanone] |
| 72 | 0.005 | C[C@@H]1CCCN(C(=O)c2cccc(F)c2-c2ncccn2)[C@@H]1CNc1ccc(C(F)(F)F)cn1 [Example A233, (3-Fluoro-2-(pyrimidin-2-yl)phenyl)((2S,3R)-3-methyl-2-(((5-(trifluoromethyl)pyridin-2-yl)amino)methyl)piperidin-1-yl)methanone] |
